From patent US20090088411A1, “No-donating corticosteroid with improved pharmacokinetic, anti-inflammatory and vasodilatory properties” (Topigen Pharmaceuticals Inc., priority 2007, published 2009)
Marks after values point to notes of the source that are not given here.

Key:
[1] = tested on: C-reactive protein (CRP); test: Plasma CRP levels; format: in vivo, humans; conditions: for CRP (mg/L): mean (SD)
Protocol: (§1) Although this study was only powered for neutrophils, the following parameters were also evaluated: sputum total cell and differential cell counts, using known methods, on days 0, 15 and day 22; pre-dose FEV1 measurements on days 0, 1, 14, 15 and 22; peak flow measurements throughout the study (miniwright meter); use of daily rescue medication (salbutamol) throughout the study; the response to methacholine challenge test; and the eNO levels (chemiluminescence after reaction with ozone) on days 0, 15 and 22 and plasma CRP levels on days 0, 15 and 22.
(§2) Those subjects who completed the 14-day run-in period were assigned to receive either an inhaled version of a compound of the present invention (in this case, budesonide 21-(4′-nitrooxymethyl)benzoate, designated hereafter as “TPI-1020”) or budesonide over a 21-day period. The doses administered were based on equimolar amounts of budesonide and were as follows: budesonide 400 μg bid for 14 days then 800 μg bid for 7 days; TPI-1020: 600 μg bid for 14 days then 1200 μg bid for 7 days. Study treatments were delivered in lactose-based blends using the capsule-based Aeroliser dry powder inhaler. Budesonide capsules (Miflonide®, Novartis Pharmaceuticals) delivered 383 μg as compared to 423 μg of budesonide for TPI-1020 (equivalent to 9.5% more budesonide delivered to the body in the TPI-1020 group). However, the fine particle dose of budesonide was 104 μg for the budesonide capsules and only 78 μg for the TPI-1020 capsules (equivalent to 25% less budesonide delivered to the lung in the TPI-1020 group). No other asthma medication except rescue salbutamol was permitted during the study.

[2] = Methacholine challenge test (PC20); format: in vivo, humans; conditions: mean (SD)
Protocol: as §1, §2

[3] = tested on: neutrophils; test: Guinea pig model of LPS induced lung inflammation; format: in vivo
[4] = tested on: HPA (hypothalamic-pituitary-adrenal) axis; conditions: in vivo
Description: (§4) This undesirable HPA axis suppression is typically measured by a reduction in urinary cortisol excretion.
(§5) Safety parameters consisted of adverse events and serious adverse events, vital signs, asthma symptoms, laboratory determinations of CBC, urinalysis, regular blood biochemistry, plasma C-reactive protein (CRP), plasma and urinary free cortisol levels, spirometry and electrocardiograms (ECGs).

[5] = tested on: blood eosinophils; test: Blood eosinophils; format: in vivo, humans; conditions: mean (SD)
Protocol: as §2

[6] = tested on: sputum eosinophils; test: Sputum differential cell count: eosinophils; format: in vivo, humans; conditions: mean (SD)
Protocol: as §1, §2

[7] = Peak flow measurements (PEF, miniwright meter); format: in vivo, humans; conditions: mean (SD)
Protocol: as §1, §2

[8] = tested on: blood lymphocytes; test: Blood lymphocytes; format: in vivo, humans; conditions: mean (SD)
Protocol: as §2

[9] = Asthma control scoring system questionnaire (ACSS); format: in vivo, humans; conditions: mean (SD)
Protocol: as §2

[10] = set-up: species or system humans; conditions: human, in vivo
Description: (§3) A clinical study was undertaken in humans to test certain aspects of a preferred NO-donating budesonide derivative, TPI-1020, as compared to the corticosteroid, budesonide which was not modified with a NO-donating moiety. Specifically, the objectives of this study were to determine the safety, pharmacodynamic and pharmacokinetic activity of multiple doses of inhaled NO-donating budesonide derivatives compared to that of equimolar doses of inhaled budesonide in subjects with mild asthma who smoke. We chose patients with asthma who smoke since these patients had reported to have not only an increase in eNO but also an increase in neutrophils within their sputum (as described in COPD). While assessing the safety of these compounds in such patients we could thus explore the effects of the same in patients with increased sputum neutrophils.
as §2
The total number of adverse events reported by patients receiving budesonide and TPI-1020 is graphically depicted in FIG. 1. More specifically, FIG. 1 depicts the total number of either treatment-related or physician-determined adverse events for each drug during the 21 day therapeutic period.

[11] = Plasma pharmacokinetic profile after inhalation; format: in vivo, humans
Protocol: as §2
TPI-1020 was not detected in the plasma of treated subjects at all the time points that were assessed over an 8 hour period on days 1 and 14 and on day 22, approximately 12 hours after the last dose. The budesonide plasma phamacokinetic analysis was different in the TPI-1020 group when compared to the budesonide group (FIG. 6). The Cmax, Tmax, and AUC were, respectively in the TPI-1020 vs. the budesonide treated group. For the data presented in FIG. 6, plasma budesonide was measured over an 8 hour period in budesonide (400 mcg, n=10) and TPI-1020 (600 mcg, n=8) treated patients after the first dose (day 1, dotted line) and day 14 (solid line).

[12] = FEV1 spirometry; format: in vivo, humans; conditions: for FEV1 (ITT, L) / FEV1 (PD, L): mean (SD)
Protocol: as §1, §2

[13] = tested on: HPA (hypothalamic-pituitary-adrenal) axis; conditions: in vivo; remark: listed apart in the source
Description: as §4, §5

[14] = Use of daily rescue medication (salbutamol); format: in vivo, humans; conditions: mean (SD)
Protocol: as §1, §2

[15] = tested on: exhaled nitric oxide (eNO); test: Exhaled NO levels (chemiluminescence); format: in vivo, humans; conditions: for eNO (ppb): mean (SD)
Protocol: as §1, §2

[16] = tested on: sputum neutrophils; test: Sputum differential cell count: neutrophils; format: in vivo, humans; conditions: for median sputum neutrophils: all patients
Description: as §3, §1, §2
The sample size was chosen to provide information about the primary study objective (safety) and with the power to detect a 20% difference in the decrease in sputum neutrophils with TPI-1020, versus that occurring with budesonide. There are no published studies in mild smokers with asthma that have described the variability in sputum neutrophils. However, based on the COPD publication by Gamble et al., almost all patients with COPD have increased sputum neutrophils (>20%). We calculated that if 13 subjects per group completed the study, a difference of 20% in neutrophils (%) between groups could be detected with a power of 80%.

[17] = Supine and standing blood pressure (vital signs), clinical study; format: in vivo, humans
Protocol: as §2

Which results are given for `CCCC1O[C@@H]2C[C@H]3[C@@H]4CCC5=CC(=O)C=C[C@]5(C)[C@H]4[C@@H](O)C[C@]3(C)[C@]2(C(=O)COC(=O)c2ccc(CO[N+](=O)[O-])cc2)O1` (some centres unmarked) [TPI-1020, budesonide 21-(4′-nitrooxymethyl)benzoate]?
patients in whom CRP decreased ([1]; 22 days of therapy compared to baseline): 69.2%; CRP (mg/L) ([1]; Baseline): 3.6 (3.9) mg/L; CRP (mg/L) ([1]; Day 22): 3.0 (4.5) mg/L; decrease in plasma CRP ([1]; day 15 versus baseline, p=0.03 between groups): 1.4 mg/L; PC20 (mg/ml) ([2]; Baseline): 3.5 (5.7) mg/ml; PC20 (mg/ml) ([2]; Day 22): 4.0 (8.9) mg/ml; recruitment of neutrophils into the lungs [3]: inhibited the recruitment of neutrophils; effect on 24-hour urinary free cortisol [4]: statistically insignificant effects; Blood eos (%) ([5]; Baseline): 2.8 (2.7) %; Blood eos (%) ([5]; Day 22): 1.8 (1.7) %; Sputum eos (%) ([6]; Baseline): 8.7 (10.8) %; Sputum eos (%) ([6]; Day 22): 3.3 (4.0) %; PEF (AM, L/min) ([7]; Baseline): 365.1 (93) L/min; PEF (AM, L/min) ([7]; Day 22): 375.3 (97) L/min; Blood lymphocytes (%) ([8]; Baseline): 20.3 (16.6) %; Blood lymphocytes (%) ([8]; Day 22): 18.4 (15.4)* %; ACSS ([9]; Baseline): 65 (11.1); ACSS ([9]; Day 22): 71.5 (16.3); drug-related adverse events [10]: 6; number of subjects that reported adverse events [10]: 6; total treatment-emergent adverse events [10]: 13; TPI-1020 in plasma ([11]; all time points over 8 hours on days 1 and 14, and day 22 about 12 hours after last dose): not detected; AUC of plasma budesonide relative to equimolar budesonide group ([11]; inhaled, equimolar doses): significantly lower AUC values; Cmax of plasma budesonide relative to equimolar budesonide group ([11]; inhaled, equimolar doses): more than five fold lower; AUC of plasma budesonide relative to equimolar budesonide group ([11]; inhaled, equimolar doses, listed as NO-donating budesonide derivative): more than five fold lower; FEV1 (ITT, L) ([12]; Baseline): 3.0 (0.5) L; FEV1 (PD, L) ([12]; Baseline): 3.0 (0.6) L; FEV1 (PD, L) ([12]; Day 1): 2.8 (0.6) L; FEV1 (PD, L) ([12]; Day 14): 3.0 (0.6) L; FEV1 (PD, L) ([12]; Day 15): 2.8 (0.7) L; FEV1 (ITT, L) ([12]; Day 22): 3.0 (0.5) L; FEV1 (PD, L) ([12]; Day 22): 3.0 (0.6) L; acute effects on FEV1 over an 8 hour period ([12]; days 1 and 14, TPI-1020 600 mcg vs budesonide 400 mcg): no acute effects on FEV1 when compared to budesonide; morning plasma cortisol level [13]: 13.7 µg/dL; Doses of Rescue Rx ([14]; Baseline): 14.7 (11); Rescue free days (%) ([14]; Baseline): 39 (39) %; Doses of Rescue Rx ([14]; Day 22): 3.9 (4.5); Rescue free days (%) ([14]; Day 22): 63.5 (33) %; eNO (ppb) ([15]; Baseline): 29 (27) ppb; eNO (ppb) ([15]; Day 22): 16.9 (14) ppb; decrease in eNO ([15]; equimolar doses, baseline to day 22): 12.1 ppb; mean sputum neutrophils ([16]; after 22 days, post hoc, patients with baseline sputum neutrophils <20% (normal)): 17.9%; mean sputum neutrophils ([16]; after 22 days, post hoc, patients with baseline sputum neutrophils >20%): 33.4%; mean sputum neutrophils ([16]; baseline, post hoc, patients with baseline sputum neutrophils <20% (normal)): 11.5%; mean sputum neutrophils ([16]; baseline, post hoc, patients with baseline sputum neutrophils >20%): 50.8%; median sputum neutrophils ([16]; day 0 prior to therapy): 29.8%; decrease in median sputum neutrophils ([16]; day 0 to day 22, all patients): 32.6%; median sputum neutrophils ([16]; day 22 (end of therapy)): 20.1%; decrease in mean sputum neutrophils ([16]; over 22 days, post hoc, patients with baseline sputum neutrophils >20%): 35.8%; patients in whom sputum neutrophils decreased to <30% ([16]; patients with high neutrophils at baseline): 57.1%; change in standing pulse pressure ([17]; after 22 days, p=0.015 between groups): −9.33 mmHg; decrease in standing diastolic blood pressure ([17]; day 22 versus baseline): 4.0%; decrease in standing systolic blood pressure ([17]; day 22 versus baseline): 9.9%; decrease in supine diastolic blood pressure ([17]; day 22 versus baseline): 3.4%; decrease in supine systolic blood pressure ([17]; day 22 versus baseline): 3.2%; effect on blood pressure values ([17]; over the 22 day period, vs baseline): decreased blood pressure values
